Source: patent US9295673B2, “Combination of mTOR inhibitors and P13-kinase inhibitors, and uses thereof” (Intellikine LLC, priority 2011, dated 2016)
Read-outs that look alike come from different tables or passages of the source.

Legend:
PI3K β = PI3K β (Homo sapiens, UniProt P42338); assay: PI 3-Kinase (human) HTRF assay, PI3K β
mTOR = biological target: T1, mTOR (Homo sapiens, UniProt P42345); assay: mTOR kinase inhibition assay (radiometric or LanthaScreen TR-FRET); type: biochemical; settings: read-out: mTORC IC50
T1 construct: purchased Invitrogen

PI3K γ = PI3K γ (Homo sapiens, UniProt P48736); assay: PI 3-Kinase (human) HTRF assay, PI3K γ
Procedure: (§1) An exemplary system is PI 3-Kinase (human) HTRF™ Assay from Upstate. […] Briefly, the assay is a time resolved FRET assay that indirectly measures PIP3 product formed by the activity of a PI3-K. The kinase reaction is performed in a microtitre plate (e.g., a 384 well microtitre plate). The total reaction volume is approximately 20 ul per well. In the first step, each well receives 2 ul of test compound in 20% dimethylsulphoxide resulting in a 2% DMSO final concentration. […] The plate is sealed and incubated for 15 minutes at room temperature. […] The plate is sealed and incubated for 1 hour at room temperature. The reaction is stopped by adding 5 ul of Stop Solution per well and then 5 ul of Detection Mix is added per well. The plate is sealed, incubated for 1 hour at room temperature, and then read on an appropriate plate reader. Data is analyzed and IC50s are generated using GraphPad Prism 5.

PI3K α = PI3K α (Homo sapiens, UniProt P42336); assay: PI 3-Kinase (human) HTRF assay, PI3K α
Procedure: as §1

PI3K δ = PI3K δ (Homo sapiens, UniProt O00329); assay: PI 3-Kinase (human) HTRF assay, PI3K δ
[1] = read-out: PI3K β IC50, in vitro
[2] = read-out: PI3K α IC50, in vitro
[3] = read-out: PI3K δ IC50, in vitro
[4] = read-out: PI3K γ IC50, in vitro

Chain of PI3K α (P42336 whole entry): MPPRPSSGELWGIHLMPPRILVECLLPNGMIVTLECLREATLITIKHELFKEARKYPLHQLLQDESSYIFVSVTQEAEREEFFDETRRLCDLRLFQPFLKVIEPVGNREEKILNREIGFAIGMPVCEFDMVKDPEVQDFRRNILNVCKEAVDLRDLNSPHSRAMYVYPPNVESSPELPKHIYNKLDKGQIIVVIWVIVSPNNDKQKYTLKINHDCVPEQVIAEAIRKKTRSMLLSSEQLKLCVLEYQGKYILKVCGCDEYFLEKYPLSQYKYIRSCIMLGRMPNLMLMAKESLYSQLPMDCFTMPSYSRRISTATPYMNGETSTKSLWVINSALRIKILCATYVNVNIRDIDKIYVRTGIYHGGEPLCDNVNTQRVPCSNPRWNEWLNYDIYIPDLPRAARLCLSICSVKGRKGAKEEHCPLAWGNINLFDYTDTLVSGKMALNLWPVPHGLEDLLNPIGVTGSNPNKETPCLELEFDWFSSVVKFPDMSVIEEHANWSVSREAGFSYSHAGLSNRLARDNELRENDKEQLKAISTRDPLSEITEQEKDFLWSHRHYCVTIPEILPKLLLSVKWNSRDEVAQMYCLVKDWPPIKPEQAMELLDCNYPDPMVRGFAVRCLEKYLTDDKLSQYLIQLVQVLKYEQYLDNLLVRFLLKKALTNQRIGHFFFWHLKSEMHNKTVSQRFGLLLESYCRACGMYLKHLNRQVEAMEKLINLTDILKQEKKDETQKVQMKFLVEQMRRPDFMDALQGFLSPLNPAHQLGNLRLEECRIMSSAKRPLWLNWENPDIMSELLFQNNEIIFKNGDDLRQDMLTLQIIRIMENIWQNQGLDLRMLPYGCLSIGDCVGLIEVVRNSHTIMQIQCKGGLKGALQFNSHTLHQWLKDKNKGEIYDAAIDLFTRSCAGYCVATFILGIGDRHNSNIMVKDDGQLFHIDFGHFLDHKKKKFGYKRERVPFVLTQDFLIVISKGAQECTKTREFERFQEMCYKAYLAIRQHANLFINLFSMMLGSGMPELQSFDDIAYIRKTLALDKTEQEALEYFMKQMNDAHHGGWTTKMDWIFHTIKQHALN
Chain of PI3K α (P27986 whole entry partner): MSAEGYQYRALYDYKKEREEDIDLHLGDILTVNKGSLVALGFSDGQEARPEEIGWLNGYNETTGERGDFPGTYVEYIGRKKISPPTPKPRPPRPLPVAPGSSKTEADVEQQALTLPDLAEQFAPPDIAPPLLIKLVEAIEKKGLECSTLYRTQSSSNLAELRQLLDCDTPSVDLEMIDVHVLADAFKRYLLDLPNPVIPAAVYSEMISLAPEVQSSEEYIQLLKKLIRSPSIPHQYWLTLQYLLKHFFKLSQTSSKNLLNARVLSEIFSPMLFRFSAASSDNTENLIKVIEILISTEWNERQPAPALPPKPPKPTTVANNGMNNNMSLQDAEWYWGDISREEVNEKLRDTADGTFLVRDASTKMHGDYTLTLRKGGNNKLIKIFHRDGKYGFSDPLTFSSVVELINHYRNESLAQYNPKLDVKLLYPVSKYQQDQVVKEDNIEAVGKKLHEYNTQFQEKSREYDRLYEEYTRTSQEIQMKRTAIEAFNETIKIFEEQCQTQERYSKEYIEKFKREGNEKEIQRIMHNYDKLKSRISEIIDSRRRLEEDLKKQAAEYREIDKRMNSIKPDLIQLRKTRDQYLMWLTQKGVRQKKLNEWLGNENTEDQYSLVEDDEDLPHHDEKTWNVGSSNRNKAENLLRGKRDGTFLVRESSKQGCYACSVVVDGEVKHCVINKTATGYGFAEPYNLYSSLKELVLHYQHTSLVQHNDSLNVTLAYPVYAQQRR
T1 sequence (P42345 1360-2549 limits assumed): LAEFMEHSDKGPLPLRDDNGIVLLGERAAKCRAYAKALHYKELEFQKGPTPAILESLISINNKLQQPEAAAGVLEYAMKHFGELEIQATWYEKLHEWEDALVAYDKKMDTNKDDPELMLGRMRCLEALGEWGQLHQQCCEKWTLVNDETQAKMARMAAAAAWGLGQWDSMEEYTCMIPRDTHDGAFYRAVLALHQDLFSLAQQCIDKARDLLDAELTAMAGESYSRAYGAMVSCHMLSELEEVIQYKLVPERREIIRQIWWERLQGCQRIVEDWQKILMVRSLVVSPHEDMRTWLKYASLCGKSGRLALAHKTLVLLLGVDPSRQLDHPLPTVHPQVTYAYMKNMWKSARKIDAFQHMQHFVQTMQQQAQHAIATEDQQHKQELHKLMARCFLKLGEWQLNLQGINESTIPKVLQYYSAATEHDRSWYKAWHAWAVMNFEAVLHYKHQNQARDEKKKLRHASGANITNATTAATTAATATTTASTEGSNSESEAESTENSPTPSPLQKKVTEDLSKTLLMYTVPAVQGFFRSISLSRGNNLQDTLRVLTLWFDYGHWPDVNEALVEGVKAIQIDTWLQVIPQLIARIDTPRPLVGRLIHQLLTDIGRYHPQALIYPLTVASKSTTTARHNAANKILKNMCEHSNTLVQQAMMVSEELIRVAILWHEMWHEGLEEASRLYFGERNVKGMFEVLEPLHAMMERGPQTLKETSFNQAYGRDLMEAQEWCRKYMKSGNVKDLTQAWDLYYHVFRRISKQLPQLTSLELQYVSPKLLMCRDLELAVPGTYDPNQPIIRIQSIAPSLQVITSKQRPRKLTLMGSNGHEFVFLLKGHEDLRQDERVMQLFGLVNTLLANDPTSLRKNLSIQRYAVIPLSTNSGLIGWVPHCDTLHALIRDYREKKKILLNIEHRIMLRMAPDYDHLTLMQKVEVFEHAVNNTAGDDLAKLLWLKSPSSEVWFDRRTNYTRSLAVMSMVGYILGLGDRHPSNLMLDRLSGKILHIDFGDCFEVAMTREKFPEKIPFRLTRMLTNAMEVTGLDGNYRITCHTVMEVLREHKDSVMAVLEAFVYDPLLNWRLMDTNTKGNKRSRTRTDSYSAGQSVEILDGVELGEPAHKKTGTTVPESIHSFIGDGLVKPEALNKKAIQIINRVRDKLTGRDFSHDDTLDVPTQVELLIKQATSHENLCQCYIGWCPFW
Chain of PI3K β (P42338 whole entry): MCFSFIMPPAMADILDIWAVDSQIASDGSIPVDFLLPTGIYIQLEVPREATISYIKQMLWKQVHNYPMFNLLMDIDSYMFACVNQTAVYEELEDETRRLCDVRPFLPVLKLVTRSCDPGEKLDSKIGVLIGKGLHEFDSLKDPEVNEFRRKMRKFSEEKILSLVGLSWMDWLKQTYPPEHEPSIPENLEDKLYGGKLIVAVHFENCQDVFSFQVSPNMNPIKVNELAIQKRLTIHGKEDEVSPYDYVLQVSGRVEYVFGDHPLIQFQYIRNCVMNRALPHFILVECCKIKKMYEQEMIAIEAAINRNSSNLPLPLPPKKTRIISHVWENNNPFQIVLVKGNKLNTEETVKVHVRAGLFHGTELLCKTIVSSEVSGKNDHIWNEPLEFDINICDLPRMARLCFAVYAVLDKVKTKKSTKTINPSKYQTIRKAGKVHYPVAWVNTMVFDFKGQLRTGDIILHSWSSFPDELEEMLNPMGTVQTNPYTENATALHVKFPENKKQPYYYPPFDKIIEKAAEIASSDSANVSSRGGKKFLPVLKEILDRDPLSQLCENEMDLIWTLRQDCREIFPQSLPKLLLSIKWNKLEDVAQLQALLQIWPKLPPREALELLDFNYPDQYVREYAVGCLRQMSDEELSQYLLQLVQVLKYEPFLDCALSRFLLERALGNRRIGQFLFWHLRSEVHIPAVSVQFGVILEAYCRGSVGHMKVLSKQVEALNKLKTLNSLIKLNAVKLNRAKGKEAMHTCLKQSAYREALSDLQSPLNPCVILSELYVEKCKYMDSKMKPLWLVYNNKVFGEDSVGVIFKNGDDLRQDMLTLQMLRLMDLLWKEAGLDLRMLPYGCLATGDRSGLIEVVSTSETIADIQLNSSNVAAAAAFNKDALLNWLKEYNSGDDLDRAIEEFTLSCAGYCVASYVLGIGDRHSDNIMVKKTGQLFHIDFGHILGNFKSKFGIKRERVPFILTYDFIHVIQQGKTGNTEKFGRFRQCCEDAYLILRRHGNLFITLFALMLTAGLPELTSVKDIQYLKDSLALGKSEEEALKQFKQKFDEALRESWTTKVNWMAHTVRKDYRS
Chain of PI3K β (P27986 whole entry partner): as the sequence (P27986 whole entry partner) above

Compound `Nc1nc2cc(-c3ccc4ncc(C(=O)NC5CCC(O)CC5)n4c3)ccc2o1` (stereo not shown) [Compound 143] has an IC50 (PI3K β; read-out: PI3K β IC50) of less than 10 µM, an IC50 (mTOR) greater than 10 µM and an IC50 (PI3K γ; read-out: PI3K γ IC50) of less than 0.1 µM.

In the case of `CC(C)n1nc(-c2cc3cc(O)c(Cl)cc3[nH]2)c2c(N)ncnc21` [Compound 32], the IC50 (mTOR; Table 2) is reported as less than 0.5 µM, the IC50 (PI3K α; read-out: PI3K α IC50) is reported as greater than 0.5 µM and the IC50 (PI3K δ; read-out: PI3K δ IC50) is reported as greater than 0.5 µM. The IC50 (PI3K γ; read-out: PI3K γ IC50, Table 2) was greater than 0.5 µM.

`Nc1nc2cc(-c3ccc4ncc(NC5CCC(O)CC5)nc4c3)ccc2o1` (stereo not shown) [Compound 128] was tested, and the IC50 (PI3K β; read-out: PI3K β IC50) was less than 10 µM, the IC50 (PI3K α; read-out: PI3K α IC50) was less than 0.1 µM and the IC50 (PI3K δ; read-out: PI3K δ IC50) was less than 0.1 µM. The IC50 (PI3K γ; read-out: PI3K γ IC50) was less than 0.1 µM.

`C[C@@H]1COCCN1C1CN(c2cnc3ccc(-c4ccc5oc(N)nc5c4)nc3n2)C1` [Compound 600] gave an IC50 (PI3K α; read-out: PI3K α IC50, Table 4) of less than 10 µM and an IC50 (PI3K γ; read-out: PI3K γ IC50, Table 4) of less than 10 µM.

For `Nc1nc2cc(-c3ccc4ncc(N5CC(N6C7CCC6COC7)C5)nc4n3)ccc2o1` [Compound 602], the IC50 (PI3K β; read-out: PI3K β IC50, Table 4) was greater than 10 µM, the IC50 (PI3K α; read-out: PI3K α IC50) was less than 10 µM and the IC50 (PI3K δ; read-out: PI3K δ IC50) was greater than 10 µM. The IC50 (PI3K γ; read-out: PI3K γ IC50) was greater than 10 µM.

In the case of `CC(C)n1nc(-c2cc3c(Cl)ccc(O)c3[nH]2)c2c(N)ncnc21` [Compound 39], the IC50 (mTOR; Table 2) is reported as less than 0.01 µM, the IC50 (PI3K α; read-out: PI3K α IC50, Table 2) is reported as greater than 0.5 µM and the IC50 (PI3K δ; read-out: PI3K δ IC50, Table 2) is reported as greater than 0.5 µM. It also gave an IC50 (PI3K γ; read-out: PI3K γ IC50) greater than 0.5 µM.

Compound `CNC(=O)Cn1nc(-c2cc3cc(O)ccc3[nH]2)c2c(N)ncnc21` [Compound 35] has an IC50 (mTOR; Table 2) greater than 0.5 µM, an IC50 (PI3K α; read-out: PI3K α IC50) greater than 0.5 µM and an IC50 (PI3K δ; read-out: PI3K δ IC50) greater than 0.5 µM. It also gave an IC50 (PI3K γ; read-out: PI3K γ IC50, Table 2) greater than 0.5 µM.

`CC(C)[C@@H](N)C(=O)N1CCN(c2cnc3ccc(-c4ccc5oc(N)nc5c4)cc3n2)CC1` [Compound 270] was tested, and the IC50 (PI3K β; read-out: PI3K β IC50) was less than 1 µM, the IC50 (mTOR) was less than 10 µM and the IC50 (PI3K α; read-out: PI3K α IC50) was less than 0.1 µM. The IC50 (PI3K δ; read-out: PI3K δ IC50) was less than 1 µM.

`COCCn1nc(-c2cc3cc(O)ccc3[nH]2)c2c(N)ncnc21` [Compound 40] showed an IC50 (mTOR; Table 2) of less than 0.1 µM, an IC50 (PI3K α; read-out: PI3K α IC50, Table 2) greater than 0.5 µM and an IC50 (PI3K δ; read-out: PI3K δ IC50) greater than 0.5 µM. The IC50 (PI3K γ; read-out: PI3K γ IC50, Table 2) was greater than 0.5 µM.

`C[C@@H]1CN(C2CN(c3cnc4ccc(-c5ccc6oc(N)nc6c5)nc4c3)C2)CCN1C` [Compound 608] gave an IC50 (PI3K β; read-out: PI3K β IC50, Table 4) of less than 10 µM, an IC50 (mTOR; Table 4) greater than 10 µM and an IC50 (PI3K γ; read-out: PI3K γ IC50, Table 4) of less than 10 µM.

Work on `Nc1ncnc2c1c(-c1cc3cc(O)ccc3[nH]1)nn2Cc1cccnc1` [Compound 38] yielded an IC50 (mTOR; Table 2) of less than 0.5 µM, an IC50 (PI3K α; read-out: PI3K α IC50, Table 2) greater than 0.5 µM and an IC50 (PI3K δ; read-out: PI3K δ IC50, Table 2) greater than 0.5 µM. It also gave an IC50 (PI3K γ; read-out: PI3K γ IC50) greater than 0.5 µM.

Compound `Nc1nc2cc(-c3cnc4ccc(N5CCOCC5)nc4c3)ccc2o1` [Compound 624] has an IC50 (PI3K α; read-out: PI3K α IC50, Table 4) of less than 10 µM and an IC50 (PI3K γ; read-out: PI3K γ IC50, Table 4) of less than 10 µM.

With `Nc1cc(-c2ccc3ncc(C(=O)N4CCOCC4)n3c2)cnc1Cl` [Compound 415] the IC50 (PI3K β; [1]) was greater than 10 µM, the IC50 (PI3K α; [2]) was less than 10 µM and the IC50 (PI3K δ; [3]) was greater than 10 µM. It also gave an IC50 (PI3K γ; [4]) greater than 10 µM.

`CC1CN(C2CN(c3cnc4ccc(-c5ccc6oc(N)nc6c5)nc4n3)C2)CCO1` (stereo not shown) [Compound 569] showed an IC50 (PI3K β; read-out: PI3K β IC50, Table 4) greater than 10 µM, an IC50 (PI3K α; read-out: PI3K α IC50, Table 4) of less than 1 µM and an IC50 (PI3K δ; read-out: PI3K δ IC50, Table 4) greater than 10 µM. It also gave an IC50 (PI3K γ; read-out: PI3K γ IC50, Table 4) of less than 10 µM.

Compound `O=C(c1cnc2ccc(-c3cncc4c3cnn4CCO)cn12)N1CCOCC1` [Compound 539] has an IC50 (PI3K β; [1]) greater than 10 µM, an IC50 (PI3K α; [2]) greater than 10 µM and an IC50 (PI3K δ; [3]) greater than 10 µM. The IC50 (PI3K γ; [4]) was greater than 10 µM.

With `C[C@H]1CN(c2cnc3scc(-c4ccc5oc(N)nc5c4)c3n2)CCN1` [Compound 399] the IC50 (PI3K β) was greater than 10 µM, the IC50 (PI3K α) was greater than 10 µM and the IC50 (PI3K δ) was greater than 10 µM. The IC50 (PI3K γ) was greater than 10 µM.

Work on `Cc1ccc(NC(=O)c2cnc3ccc(-c4ccc5oc(N)nc5c4)cn23)cn1` [Compound 294] yielded an IC50 (PI3K β; read-out: PI3K β IC50) greater than 10 µM, an IC50 (PI3K α; read-out: PI3K α IC50) of less than 0.1 µM and an IC50 (PI3K δ; read-out: PI3K δ IC50) of less than 10 µM. For the same compound, the IC50 (PI3K γ; read-out: PI3K γ IC50) was less than 0.1 µM.

In the case of `C[C@@H]1CN(c2cnc3ccc(-c4ccc5oc(N)nc5c4)nc3c2)CCN1` [Compound 599], the IC50 (mTOR; Table 4) is reported as greater than 10 µM, the IC50 (PI3K δ; read-out: PI3K δ IC50) is reported as less than 10 µM and the IC50 (PI3K γ; read-out: PI3K γ IC50, Table 4) is reported as less than 10 µM.

Compound `COc1ccc(CNc2n[nH]c3cc(-c4ccc5oc(N)nc5c4)ccc23)cc1` [Compound 429] has an IC50 (PI3K β; [1]) greater than 10 µM, an IC50 (PI3K α; [2]) greater than 10 µM and an IC50 (PI3K δ; [3]) greater than 10 µM. For the same compound, the IC50 (PI3K γ; [4]) was greater than 10 µM.

`Nc1nc2cc(-c3ccc4ncc(N5CC(N6CC7CCC(C6)O7)C5)nc4n3)ccc2o1` [Compound 571] gave an IC50 (PI3K β; read-out: PI3K β IC50, Table 4) greater than 10 µM, an IC50 (PI3K α; read-out: PI3K α IC50, Table 4) of less than 1 µM and an IC50 (PI3K δ; read-out: PI3K δ IC50, Table 4) greater than 10 µM. The IC50 (PI3K γ; read-out: PI3K γ IC50, Table 4) was less than 10 µM.

`O=C(c1cnc2ccc(-c3ccnc4[nH]ncc34)cn12)N1CCOCC1` [Compound 532] was tested, and the IC50 (mTOR; in vitro) was greater than 10 µM and the IC50 (PI3K α; [2]) was less than 10 µM.

`CN1CC2CN(C(=O)c3cnc4ccc(-c5ccc6oc(N)nc6c5)cn34)CC2C1` (stereo not shown) [Compound 533] showed an IC50 (mTOR; in vitro) greater than 10 µM.

`Nc1nc2cc(-c3ccc4ncc(C(=O)N5CCN(CC6CC6)CC5)n4c3)ccc2o1` [Compound 161] gave an IC50 (PI3K β; read-out: PI3K β IC50) of less than 10 µM, an IC50 (PI3K α; read-out: PI3K α IC50) of less than 1 µM and an IC50 (PI3K δ; read-out: PI3K δ IC50) of less than 10 µM. The IC50 (PI3K γ; read-out: PI3K γ IC50) was less than 10 µM.

For `Nc1ncnc2c1c(-c1cc3cccc(O)c3[nH]1)nn2C1CCCC1` [Compound 36], the IC50 (mTOR; Table 2) was less than 0.01 µM, the IC50 (PI3K α; read-out: PI3K α IC50, Table 2) was greater than 0.5 µM and the IC50 (PI3K δ; read-out: PI3K δ IC50, Table 2) was 0.1 to 0.5 µM. For the same compound, the IC50 (PI3K γ; read-out: PI3K γ IC50, Table 2) was 0.05 to 0.1 µM.

`Nc1nc2cc(-c3ccc4ncc(N5CC6CCC(C5)O6)cc4n3)ccc2o1` [Compound 610] was tested, and the IC50 (PI3K β; read-out: PI3K β IC50, Table 4) was greater than 10 µM, the IC50 (PI3K α; read-out: PI3K α IC50, Table 4) was less than 0.1 µM and the IC50 (PI3K δ; read-out: PI3K δ IC50, Table 4) was greater than 10 µM. It also gave an IC50 (PI3K γ; read-out: PI3K γ IC50, Table 4) of less than 0.1 µM.
